According to US20190142860A1, “NUCLEIC ACID BASED TIA-1 INHIBITORS” (Aquinnah Pharmaceuticals, Inc., priority 2015, published 2019):
“Also recorded” adds a separate entry of the source.

Assays:
[1] = test system: stress granules (SGs) in HT22 cells; experiment: Stress granule / tau granule formation in HT22 cells expressing tau and TIA1; format: cell-based, mouse; conditions: for formation of tau granules: neuronal cell lines
Protocol: HT22 cells were transfected using Lipofectamine (Invitrogen), incubated 24 hours, and treated after 24 hrs (25 uM salubrinal, 5 μg/ml puromycin, 10 μg/ml cycloheximide). At 48 hours the cells were fixed in 4% PFA.
HT22 cells were maintained in DMEM (4.5 g glucose/L) media supplemented with 10% fetal bovine serum, lx PenStrep (Invitrogen), lx L-Glutamine (Invitrogen), and 1× non-essential amino acids. Cells were passaged twice a week 1:5. Cells were seeded on 18 mm poly-D-lysine coated coverslips in 12-well plates (75,000/coverslip) one day prior to transfection in […] media (DMEM, 10% FBS). Cells were transfected at 1:2 ratio DNA:Lipofectamine (Invitrogen), delivering 2 μg total DNA per well. Lipofectamine in OptiMEM (Invitrogen) is incubated for 5 min prior to the addition of the DNA/OptiMEM. The transfection mixture is then allowed to incubate for 20 min at room temperature prior to being added to the cells. 500 μL of media is removed and 500 μL of transfection mixture is added dropwise to each well. Cells were incubated 24 hours, after which the addition of 25 μM salubrinal may be added to half of the plates and allowed to incubate for 24 hours. At 48 hours post-transfection, the cells were fixed in 4% PFA and stored in PBS.
Granule count cells: SG density was quantified using Image J software by calculating the number of puncta […] per 63× frame controlled for the number of cells. This was done by thresholding images, and using the analyze particle functionality. Quantifications of granule counts and area in primary neurons was done in ImageJ by using a free-hand tool to outline the neuron, thresholding the image, creating a mask over the nucleus, and using the particle analyzer tool.

[2] = test system: tau granules in primary hippocampal neurons; experiment: Tau granules in dendrites of primary tau−/− hippocampal neurons; format: cell-based, mouse; conditions: WT or P301L tau ± TIA1, treated at DIV21, cycloheximide 10 μg/ml
Protocol: Primary hippocampal cultures were generated from P0 pups from C57Bl/6 WT, TIA1 −/−, or tau −/− mice. The hippocampus was dissected out in Hank's Balanced Salt Solution buffered with HEPES and PenStrep, and dissociated with 0.125% trypsin for 15 min at 37° C., followed by trituration. Dissociated cells were plated on plates of coverslips pre-coated with Poly-D lysine (100 μg/mL, Sigma). Neurons were grown for 21 days in Neurobasal medium supplemented with B-27 (Invitrogen)
At DIV3 neurons were transduced with AAV9-TIA1-mRFP or AAV9-mRFP virus (MOI 20). At DIV7 neurons were transduced with AAV1-WT tau-V5 or AAV1-P301L tau-V5 virus (MOI 20). Neurons were fixed for immunolabeling and confocal microscopy in 4% PFA, or lysed in via sonication in PBS with protease and phosphatase inhibitors.
Granule count neurons: Quantifications of granule counts and area in primary neurons was done in ImageJ by using a free-hand tool to outline the neuron, thresholding the image, creating a mask over the nucleus, and using the particle analyzer tool.

[3] = test system: primary hippocampal neurons; experiment: Dendrite length of primary hippocampal neurons (MAP2, NeuronJ); format: cell-based, mouse; conditions: Tau−/− and TIA1−/− neurons, WT or P301L tau ± TIA1, DIV21; puromycin 5 μg/ml, cycloheximide 10 μg/ml
Text: SG density and dendritic processes were quantified using Image J (using ImageJ plug-ins NeuronJ, tracing MAP2 positive processes for dendritic measurements). Granule movement and formation was quantified using Bitplane Imaris Track software (Imaris).
Measurements of dendritic processes were done using ImageJ plug-ins NeuronJ. Using the software to trace MAP2 positive processes of individual cells yields a pixel measurement that can then be back calculated to micrometers using the microscope scaling parameters.

caspase-3 = experiment: Caspase cleavage (Caspase-Glo 3/7) in neurons co-transduced with TIA1 and tau; format: cell-based, mouse; conditions: salubrinal 25 μM
Protocol: Caspase 3/7 cleavage was quantified with the Caspase-Glo 3/7 Assay kit, Promega. Apoptosis detected DNA fragmentation (TiterTACS Colorimetric Apoptosis Detection kit, Trevigen).
Caspase 3/7 cleavage was quantified with the Caspase-Glo 3/7 Assay kit, Promega. Apoptosis was analyzed by quantifying DNA fragmentation (TiterTACS Colorimetric Apoptosis Detection kit, Trevigen).

[4] = biological target: microtubules (mouse brain); experiment: microtubule pelleting in RAB buffer / immunoblot, mouse cortex

| Compound | formation of tau granules [1] | tau granules in dendritic processes (Tau13, MAP2 imaging) [2] | dendrite length [3] | further results |
| --- | --- | --- | --- | --- |
| C[C@@H]1C[C@@H]([C@H](O)CC2CC(=O)NC(=O)C2)C(=O)[C@@H](C)C1 [cycloheximide] | prevented formation of tau granules | spread diffusely with only small, less defined granules apparent | did not affect dendrite length | formation of tau/SG complexes (tau+ SGs) ([1]; HT22 cells over-expressing TIA1 and WT or P301L tau, arsenite, cycloheximide 10 μg/ml): prevented formation of the tau/SG complexes; also recorded: reversed |
| COc1ccc(C[C@H](N)C(=O)N[C@H]2[C@@H](O)[C@H](n3cnc4c(N(C)C)ncnc43)O[C@@H]2CO)cc1 [puromycin] | stimulated formation of tau granules | larger and more abundant tau granules | potentiated the decrease in dendritic length | – |
| O=C(/C=C/c1ccccc1)NC(NC(=S)Nc1cccc2cccnc12)C(Cl)(Cl)Cl (centres unmarked) [salubrinal] | – | – | – | SG levels ([1]; HT22 cells expressing tau, salubrinal 25 uM): enhanced SG levels; number of SGs ([1]; HT22 cells, P301L, P301L PMIM or P301L PNULL tau ± TIA1-RFP, salubrinal 25 μM): increased the number of SGs in all conditions; levels of cleaved caspase-3 (caspase cleavage) (caspase-3): potentiated |
| human 1N4R tau with the P301S mutation (PS19 transgene) (from UniProt P10636 2-412) | – | – | – | fold increase in the ratio of MT-bound (P) to unbound (S) tau, P301S TIA1+/- against P301S TIA1+/+ [4]: 3 fold |
